Test results published in patent US20240393292A1, “ALLERGY ANTIGEN AND EPITOPE THEREOF” (HOYU CO., LTD., priority 2019, published 2024).

Tested on: IgE antibodies from patients
Assay: Wheat epitope mapping (2): overlapping 10-amino-acid peptide fragments shifted by one amino acid;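 on Rank of partial sequence as epitope binding to IgE antibody: key = sequence deemed particularly important within the common 15-residue sequence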;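 on epitope sequence binding to IgE antibody, rank (Key/Preferably/More preferably): key of grades: preferably = shorter partial sequence still acting as epitope; more preferably = sequence improving IgE binding; key = particularly important sequence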
Format: binding, human
Settings: for Rank of partial sequence as epitope binding to IgE antibody: sequence without X
How it was run: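 Cellulose-bound 10-mer peptides offset by one residue were probed with patient serum IgE and detected by chemiluminescence. Secondary-antibody-only signals were subtracted per peptide. Residual binding was expressed as % of the parent overlapping peptide, scored as none (<30%), poor (30–<50%), somewhat poor (50–<70%) or retained (≥70%).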

[1] = serum of patient P50 (child, general immediate type allergy to wheat)
[2] = serum of patient P51 (child, general immediate type allergy to wheat)
[3] = serum of patient P52 (child, general immediate type allergy to wheat)
[4] = serum of patient P56 (child, general immediate type allergy to wheat)
[5] = serum of patient P57 (child, general immediate type allergy to wheat)
[6] = serum of patient G1 (adult, general immediate type allergy to wheat)
[7] = serum of patient G4 (adult, general immediate type allergy to wheat)
[8] = serum of patient G5 (adult, general immediate type allergy to wheat)
[9] = serum of patient G7 (adult, general immediate type allergy to wheat)

1693 (KEAANFTS; REGION 1..8: note = epitope) [compound 1693]
Rank of partial sequence as epitope binding to IgE antibody (serum of patient P19 (WDEIA)): Preferably

1694 (EAANFTS; REGION 1..7: note = epitope) [compound 1694]
Rank of partial sequence as epitope binding to IgE antibody (serum of patient P19 (WDEIA)): Key

1695 (EAANFT; REGION 1..6: note = epitope) [compound 1695]
Rank of partial sequence as epitope binding to IgE antibody (serum of patient P20 (WDEIA)): Key

1698 (KEAANFT; REGION 1..7: note = epitope) [compound 1698]
Rank of partial sequence as epitope binding to IgE antibody (serum of patient P21 (WDEIA)): More preferably

1699 (EAANFT; REGION 1..6: note = epitope) [compound 1699]
Rank of partial sequence as epitope binding to IgE antibody (serum of patient P21 (WDEIA)): Preferably

1701 (EAANFT; REGION 1..6: note = epitope) [compound 1701]
Rank of partial sequence as epitope binding to IgE antibody (serum of patient P25 (WDEIA)): Key

1702 (SQVIIM; REGION 1..6: note = epitope) [compound 1702]
Rank of partial sequence as epitope binding to IgE antibody (serum of patient P25 (WDEIA)): Key

1703 (EAANFT; REGION 1..6: note = epitope) [compound 1703]
Rank of partial sequence as epitope binding to IgE antibody (serum of patient P27 (WDEIA)): Key

1704 (EAANFT; REGION 1..6: note = epitope) [compound 1704]
Rank of partial sequence as epitope binding to IgE antibody (serum of patient P28 (WDEIA)): Key

1706 (EAANFT; REGION 1..6: note = epitope) [compound 1706]
Rank of partial sequence as epitope binding to IgE antibody (serum of patient P29 (WDEIA)): Key

1707 (SQVIIM; REGION 1..6: note = epitope) [compound 1707]
Rank of partial sequence as epitope binding to IgE antibody (serum of patient P29 (WDEIA)): Key

1710 (KEAANFTS; REGION 1..8: note = epitope) [compound 1710]
epitope sequence binding to IgE antibody, rank (Key/Preferably/More preferably) (serum of patient P34 (WDEIA)): More preferably

1711 (KEAANFT; REGION 1..7: note = epitope) [compound 1711]
epitope sequence binding to IgE antibody, rank (Key/Preferably/More preferably) (serum of patient P34 (WDEIA)): Preferably

1712 (EAANF; REGION 1..5: note = epitope) [compound 1712]
epitope sequence binding to IgE antibody, rank (Key/Preferably/More preferably) (serum of patient P34 (WDEIA)): Key

1714 (KEAANF; REGION 1..6: note = epitope) [compound 1714]
epitope sequence binding to IgE antibody, rank (Key/Preferably/More preferably) (serum of patient P35 (WDEIA)): Preferably

1715 (KEAA; REGION 1..4: note = epitope) [compound 1715]
epitope sequence binding to IgE antibody, rank (Key/Preferably/More preferably) (serum of patient P35 (WDEIA)): Key

1716 (SQVIIM; REGION 1..6: note = epitope) [compound 1716]
epitope sequence binding to IgE antibody, rank (Key/Preferably/More preferably) (serum of patient P35 (WDEIA)): Key

1718 (EAANFT; REGION 1..6: note = epitope) [compound 1718]
epitope sequence binding to IgE antibody, rank (Key/Preferably/More preferably) (serum of patient P36 (WDEIA)): More preferably

1719 (EAANF; REGION 1..5: note = epitope) [compound 1719]
epitope sequence binding to IgE antibody, rank (Key/Preferably/More preferably) (serum of patient P36 (WDEIA)): Preferably

1722 (KEAANFT; REGION 1..7: note = epitope) [compound 1722]
epitope sequence binding to IgE antibody, rank (Key/Preferably/More preferably) [1]: Preferably

1723 (KEAANF; REGION 1..6: note = epitope) [compound 1723]
epitope sequence binding to IgE antibody, rank (Key/Preferably/More preferably) [1]: Key

1726 (KEAANFTS; REGION 1..8: note = epitope) [compound 1726]
epitope sequence binding to IgE antibody, rank (Key/Preferably/More preferably) [2]: Preferably

1727 (KEAANF; REGION 1..6: note = epitope) [compound 1727]
epitope sequence binding to IgE antibody, rank (Key/Preferably/More preferably) [2]: Key

1728 (KEAANF; REGION 1..6: note = epitope) [compound 1728]
epitope sequence binding to IgE antibody, rank (Key/Preferably/More preferably) [3]: Key

1729 (ANFTSQVIIM; REGION 1..10: note = epitope) [compound 1729]
epitope sequence binding to IgE antibody, rank (Key/Preferably/More preferably) [3]: Preferably

1730 (SQVIIM; REGION 1..6: note = epitope) [compound 1730]
epitope sequence binding to IgE antibody, rank (Key/Preferably/More preferably) [3]: Key

1732 (KEAA; REGION 1..4: note = epitope) [compound 1732]
epitope sequence binding to IgE antibody, rank (Key/Preferably/More preferably) (serum of patient P53 (child, general immediate type allergy to wheat)): Key

1734 (KEAANFT; REGION 1..7: note = epitope) [compound 1734]
epitope sequence binding to IgE antibody, rank (Key/Preferably/More preferably) [4]: Preferably

1735 (EAANFT; REGION 1..6: note = epitope) [compound 1735]
epitope sequence binding to IgE antibody, rank (Key/Preferably/More preferably) [4]: Key

1737 (KEAANFT; REGION 1..7: note = epitope) [compound 1737]
epitope sequence binding to IgE antibody, rank (Key/Preferably/More preferably) [5]: Preferably

1738 (EAANF; REGION 1..5: note = epitope) [compound 1738]
epitope sequence binding to IgE antibody, rank (Key/Preferably/More preferably) [5]: Key

1739 (KEAANFT; REGION 1..7: note = epitope) [compound 1739]
epitope sequence binding to IgE antibody, rank (Key/Preferably/More preferably) [6]: Preferably

1740 (KEAANF; REGION 1..6: note = epitope) [compound 1740]
epitope sequence binding to IgE antibody, rank (Key/Preferably/More preferably) [6]: Key

1741 (SQVIIM; REGION 1..6: note = epitope) [compound 1741]
epitope sequence binding to IgE antibody, rank (Key/Preferably/More preferably) [6]: Key

1742 (KEAAN; REGION 1..5: note = epitope) [compound 1742]
epitope sequence binding to IgE antibody, rank (Key/Preferably/More preferably) [7]: Preferably

1743 (EAAN; REGION 1..4: note = epitope) [compound 1743]
epitope sequence binding to IgE antibody, rank (Key/Preferably/More preferably) [7]: Key

1746 (EAANFTS; REGION 1..7: note = epitope) [compound 1746]
epitope sequence binding to IgE antibody, rank (Key/Preferably/More preferably) [8]: Preferably

1747 (EAANFT; REGION 1..6: note = epitope) [compound 1747]
epitope sequence binding to IgE antibody, rank (Key/Preferably/More preferably) [8]: Key

1749 (EAANFT; REGION 1..6: note = epitope) [compound 1749]
epitope sequence binding to IgE antibody, rank (Key/Preferably/More preferably) (serum of patient G6 (adult, general immediate type allergy to wheat)): Key

1750 (KEAANFT; REGION 1..7: note = epitope) [compound 1750]
epitope sequence binding to IgE antibody, rank (Key/Preferably/More preferably) [9]: Key

1751 (SQVIIM; REGION 1..6: note = epitope) [compound 1751]
epitope sequence binding to IgE antibody, rank (Key/Preferably/More preferably) [9]: Key

1752 (ANFTSQVIIM; REGION 1..10: note = epitope) [compound 1752]
epitope sequence binding to IgE antibody, rank (Key/Preferably/More preferably) (serum of patient G8 (adult, general immediate type allergy to wheat)): Key

1755 (YLKK; REGION 1..4: note = epitope) [compound 1755]
epitope sequence binding to IgE antibody, rank (Key/Preferably/More preferably) (serum of patient P7 (WDEIA)): Key

1756 (VSSYLKK; REGION 1..7: note = epitope) [compound 1756]
epitope sequence binding to IgE antibody, rank (Key/Preferably/More preferably) (serum of patient P8 (WDEIA)): Key

1757 (KVGYNP; REGION 1..6: note = epitope) [compound 1757]
epitope sequence binding to IgE antibody, rank (Key/Preferably/More preferably) (serum of patient P8 (WDEIA)): Key

1758 (YLKK; REGION 1..4: note = epitope) [compound 1758]
epitope sequence binding to IgE antibody, rank (Key/Preferably/More preferably) (serum of patient P14 (WDEIA)): Key

1759 (YLKK; REGION 1..4: note = epitope) [compound 1759]
epitope sequence binding to IgE antibody, rank (Key/Preferably/More preferably) (serum of patient P17 (WDEIA)): Key

1760 (EVSSYLKKV; REGION 1..9: note = epitope) [compound 1760]
epitope sequence binding to IgE antibody, rank (Key/Preferably/More preferably) (serum of patient P18 (WDEIA)): Key

1761 (YLKKVGYN; REGION 1..8: note = epitope) [compound 1761]
epitope sequence binding to IgE antibody, rank (Key/Preferably/More preferably) (serum of patient P18 (WDEIA)): Key

1762 (KEVSSYLKK; REGION 1..9: note = epitope) [compound 1762]
epitope sequence binding to IgE antibody, rank (Key/Preferably/More preferably) (serum of patient P27 (WDEIA)): Key

1763 (LKKVGYN; REGION 1..7: note = epitope) [compound 1763]
epitope sequence binding to IgE antibody, rank (Key/Preferably/More preferably) (serum of patient P27 (WDEIA)): Key

1764 (KEVSSYLKKV; REGION 1..10: note = epitope) [compound 1764]
epitope sequence binding to IgE antibody, rank (Key/Preferably/More preferably) (serum of patient P30 (WDEIA)): Key

1765 (YLKKVGYN; REGION 1..8: note = epitope) [compound 1765]
epitope sequence binding to IgE antibody, rank (Key/Preferably/More preferably) (serum of patient P30 (WDEIA)): Key

1767 (KKVGYNP; REGION 1..7: note = epitope) [compound 1767]
epitope sequence binding to IgE antibody, rank (Key/Preferably/More preferably) (serum of patient P33 (WDEIA)): Key

1768 (VSSYLKK; REGION 1..7: note = epitope) [compound 1768]
epitope sequence binding to IgE antibody, rank (Key/Preferably/More preferably) (serum of patient P35 (WDEIA)): Key

1769 (KVGYNP; REGION 1..6: note = epitope) [compound 1769]
epitope sequence binding to IgE antibody, rank (Key/Preferably/More preferably) (serum of patient P35 (WDEIA)): Key

1770 (VSSYLKK; REGION 1..7: note = epitope) [compound 1770]
epitope sequence binding to IgE antibody, rank (Key/Preferably/More preferably) [1]: Key
